According to a melting point compilation (Tetko et al.; mined from patent text by program, amines drawn as free bases though some values may be those of a salt):

Row | SMILES | melting point [°C]
1 | CCCC(=O)N(Cc1cccc2c1S(=O)(=O)N=C2C1=C(O)C(C(C)(C)C)N(Cc2ccc(F)c(C)c2)C1=O)S(C)(=O)=O (configuration not stated) | 226
2 | COC1=C(OC)C(=O)C(CCCCCCCCCOC(C)=O)=C(C)C1=O | 30
3 | COc1cccc(/C(=C/C=C/C(=O)O)c2cccc(F)c2)c1 | 151 to 153
4 | COC(=O)C(C)=C(C)C(=O)N(C(=O)c1ccccc1)c1cc(OC)c(Cl)cc1F | 142 to 145
5 | N#Cc1ncccc1-c1nc2cccnc2o1 | 129 to 133
6 | C=C1N(Cc2ccccc2)C(=O)OC12CCN(Cc1ccccc1)CC2 | 113 to 114
7 | CCC(=O)NCCC1=CCC2=C1C1=C(CC2)OCCC1 | 85 to 88
8 | COC(=O)C1CC(c2ccc(OC)c(OC)c2)=NO1 (configuration not stated) | 106 to 108
9 | COC(=O)c1nc(OC)c2ccccc2n1 | 129 to 130
10 | CSC1=NC(=O)/C(=C/c2ccccc2Nc2c(Cl)ccc(C)c2Cl)S1 | 233 to 236
11 | CC(C)Cc1csc(NC(=O)OC(C)(C)C)c1C(=O)O | 154 to 155
12 | Cc1cc(Cl)c([N+](=O)[O-])c(Cl)n1 | 69 to 70
13 | CC(C)(Nc1ccccc1[N+](=O)[O-])C(=O)O | 132 to 133
14 | Fc1ccccc1-c1nc2cccnc2o1 | 119 to 120
15 | NC(=O)c1c(Cl)c(-c2ccccc2)n2c1CN(C(=O)c1ccco1)CC2 | 238 to 239
16 | CC(C)CCC(C)(C#N)N=NC(C)(C#N)CCC(C)C (configuration not stated) | 56 to 58
17 | CCOC(=O)c1cnn(-c2ccc(C=O)cc2)n1 | 126 to 129
18 | CCCCOC(=O)C(C#N)=C1Nc2ccccc2O1 | 116 to 119
19 | CCCCCCCOc1cc2c(cc1C(C)=O)C(C)(C)CCS2 | 69 to 71
20 | Cc1nc2cccc3n(CCCNS(=O)(=O)CC(F)(F)F)c(=O)c1n23 | 157 to 158
21 | COc1ccccc1CN1Cc2cc(OC)c(OCc3ccccc3)cc2C(OC)C1 (configuration not stated) | 101 to 102
22 | CCOC(=O)C(=O)Cc1c[nH]c2ccc(OCc3ccccc3)cc12 | 169 to 170
23 | Cc1c(OCc2ccccc2)c(=O)ccn1CCOC(=O)C(C)(C)C | 103 to 106
24 | CCCCCCCCCCCCCCCCCCNC(=O)OCCN1CCCC1 | 57
25 | Cc1cc2ccccn2c1C(=O)c1ccc2c(c1)c(=O)c(C(=O)O)cn2C | 308
26 | Cc1c(C(=O)Nc2ccc(N3CCC(c4ccccc4)CC3)c(C#N)c2)cnn1-c1ccc(Cl)cc1 | 186 to 188

Row | SMILES | melting point [°C]
27 | O=C(NCC12CC3CC(CC(C3)C1)C2)c1c(Cl)ccc2nc(N3CCC(n4cn[nH]c4=O)CC3)ccc12 | 294 to 295
28 | CCC(C)(C)Nc1c(NCc2ccc(F)cc2Cl)c(=O)c1=O | 201 to 203
29 | NC(=O)C(CCN1CC[C@@H](OCc2cccc(Cl)c2)C1)(c1ccccc1)c1ccccc1 | 91 to 93
30 | CC(=O)Nc1ncc(CCc2ccc(N)cc2)s1 | 218 to 220
31 | CC(C)(C)OC(=O)N1CCN(c2nccc(Oc3ccc(NC(=O)c4cc(F)cc(N5CCOCC5)c4)c4ccccc34)n2)CC1 | 131 to 133
32 | C#CCCn1nnc2cc3c(=O)n(C(C)Cn4ncnn4)nnc3cc2c1=O (configuration not stated) | 185 to 188
33 | N#Cc1c(Cl)c[nH]c1-c1ccc(Cl)cc1 | 251 to 254
34 | N#Cc1cnc2ccsc2c1NCc1ccc(Cl)cc1Cl | 215 to 216
35 | CCOC(=O)N1CCn2c(nc(-c3ccncn3)cc2=O)C(NC(=O)c2ccccn2)C1 (racemic) | 250 to 252
36 | Nc1cnccc1C(=O)Nc1ccc(-n2nc(C(F)(F)F)cc2C(F)(F)F)cc1 | 101 to 102
37 | CC(Cc1ccc(OCC(=O)O)c(F)c1)NS(=O)(=O)c1ccccc1 (configuration not stated) | 148 to 150
38 | CCSc1nc(C)n(Cc2ccc(-c3ccccc3C(=O)O)cc2)c1CO | 250
39 | COc1ccc(N2C[C@@](C)(COC(=O)c3ccc([N+](=O)[O-])cc3)OC2=O)cc1 | 156 to 158
40 | N#Cc1cccc(C2=Nc3ccc(-c4cccc(F)c4)cc3NC(=O)C2)c1 | 232 to 235
41 | CC1=C2CCC3C(CCC4(C)C3CCC4(C)O)C2(C)CC(=CO)C1=O (configuration not stated) | 182 to 188
42 | COc1ccc(CSc2cnccc2C#N)cc1 | 80 to 81
43 | CC(C)OC(=O)Nc1ccc(Cl)c(C(=O)OC(C)C)c1 | 108 to 109
44 | CC(C)(N)CNc1ccnc2cc(Cl)ccc12 | 169 to 171
45 | COC(=O)c1cc(-c2nc(COc3ccc(COc4nn(-c5ccccc5)cc4C=O)cc3OC)c(C)o2)ccc1OS(C)(=O)=O | 136 to 137
46 | CCOC(=O)CCNc1ncccc1NC(=O)c1ccc(Cl)cc1 | 124 to 125
47 | O=C1CC(=O)N(c2ccccc2)c2cc(Cl)ccc2N1Cc1ccccc1 | 173 to 175
48 | O=C(C=Cc1ccc2c(c1)OCO2)C1C(=O)CC(c2ccccc2)CC1=O (configuration not stated) | 157 to 158
49 | O=S(=O)(NCCN1CCOCC1)c1ccc(-c2n[nH]c3c2Cc2ccccc2-3)cc1 | 218 to 220
50 | COc1cc(C2CN(c3cc4c(cc3F)ncc3c4c(=O)c(C(=O)O)cn3C)CCN2)ccc1OCc1ccccc1 (configuration not stated) | 280
51 | CC(C)(C)c1ccc(S(=O)(=O)n2c(CCC(=O)O)cc3cc(Cl)ccc32)cc1 | 169 to 171
52 | COc1cc(CCN2CCc3cc(O)ccc3C2)cc(OC)c1OC | 180 to 186
